In patent publication US7785611B2, “Parenteral vaccine formulations and uses thereof” (ALK-Abello A/S, priority 2000, dated 2010):

Tests used:
[1] = tested on: TT-specific antibodies of the IgG class; design: species or system BALB/Ca mice; details: mouse, in vivo, sc
Protocol: (§1) Tetanus toxoid (TT) containing 3.0 mg protein/ml, (obtained from Statens Serum Institut, DK-2300 Copenhagen S, Denmark).
(§2) Prepared from Mg(OH)2 gel (Reheis, USA). • Magnesium carbonate hydroxide pentahydrate, (MgCO3)4Mg(OH)25H2O, 0.05 M Mg^2+. […] Preparation of the Vaccine Formulations: […]
(§3) TT was dissolved or diluted to a concentration 10 times that of the concentration in the final vaccine formulation. The adjuvant was dissolved or diluted to a concentration five times that of the concentration in the final vaccine formulation, with regard to the cation. 1 volume TT solution was slowly mixed with 2 volumes adjuvant, and left stirring over night at 4° C. The following day 7 volumes Coca 0.0 buffer (0.25% sodium hydrogen carbonate and 0.5% sodium chloride) was slowly added. The adjuvant free vaccine was prepared as above, with the modification that the adjuvant was substituted with Coca 0.0 buffer. […]
(§4) Blood samples were drawn from the retro orbital vein every 7 days, starting on day 0. Serum was separated from the blood sample, and stored at −20° C., until analysed.
(§5) Serum samples were analysed for the presence of TT-specific immune response by means of a direct enzyme linked immunosorbent assay (ELISA), measuring TT-specific antibodies of the IgG class. […]
(§6) Bound antibodies were detected by serial incubations of the plate with a biotinylated, polyclonal antiserum to mouse IgG (obtained from Jackson Laboratories, Bar Harbour, Me., USA) followed by a streptavidine-horseradish peroxidase conjugate (obtained from DAKO A/S, Glostrup, Denmark). The plates were developed for 20 minutes with 100 μl readymade TMB substrate (Kem-En-Tech, Denmark) per well, and the reaction as stopped with an equal volume of 1M H2SO4.
(§7) The developed colour reaction was measured as absorption at 450 nm. […]
(§8) The strength of the TT-specific antibody response in each serum sample was measured as an arbitrary titre, determined as the serum dilution giving an absorption signal equal to 50% of that obtained with a 3000 fold dilution of the TT-specific monoclonal antibody. […]

[2] = tested on: TT-specific antibodies of the IgG class; design: species or system BALB/Ca mice; details: mouse, in vivo
Protocol: as §1, §2, §3, §4, §5, §6, §7, §8

[3] = current use as antacid, laxative, topical or cosmetic; cited from earlier work
[4] = magnesium hydroxide alone; cited from earlier work

Molecule	potency at inducing TT-specific antibodies compared with vaccine formulation containing Al(OH)3 [1]	onset of specific immune response compared with Al(OH)3 formulation [2]	Dose (recommended maximum dose) [3]	adsorbent activity [4]
Magnesium carbonate hydroxide pentahydrate [magnesium carbonate pentahydrate]	more potent	earlier onset	0.5 g per kg bodyweight	–
Titanium dioxide	more potent	earlier onset	1.0 g per kg bodyweight	–
[Mg+2].[OH-].[OH-] [magnesium hydroxide, Magnesium hydroxide]	more potent	earlier onset	0.5 g per kg bodyweight	low
